# Test results reported in patent US8999974B2, “Acyl piperazine derivatives as TTX-S blockers” (Raqualia Pharma Inc., priority 2010, dated 2015).
# Key:
# human NaV1.3 = biological target: T1, human NaV1.3 (Homo sapiens, UniProt Q9NY46); test: FRET assay (EFS, FDSS) on HEK293 cells expressing human NaV1.3 channels; assay type: cell-based; details: FRET assay, HEK293 cells expressing human NaV1.3; read-out: IC50 against Nav1.3
# T1 construct: expressed in transfected cells; host or cells: HEK293
# In short: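 Membrane potential in HEK293 cells stably expressing human NaV1.3, read by FRET (CC2-DMPE 10 µM / DiSBAC2(3) 15 µM with 0.555 mM VABSC-1) after electrical field stimulation, in HEPES-buffered saline pH 7.4. Compounds added after dye loading at room temperature. IC50 from normalized 440 nm fluorescence ratios.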
# human Nav1.7 = biological target: T2, human Nav1.7 (Homo sapiens, UniProt Q15858); test: FRET assay (EFS, FDSS) on CHO cells expressing human NaV1.7 channels; assay type: cell-based; details: FRET assay, CHO cells expressing human NaV1.7; read-out: IC50 against Nav1.7
# T2 construct: expressed in transfected cells; host or cells: CHO
# Protocol: This screen was used to determine the effects of compounds on human NaV1.3, human Nav1.7, and human Nav1.5 channels, utilising electrical field stimulation (EFS) system in 96-well plate format on FDSS (Hamamatsu Photonics) platform. The change of membrane potential was monitored with FRET dye pair, oxonol (DiSBAC2(3)) and coumarin (CC2-DMPE).
# CHO cells expressing human NaV1.7 channels were grown in T225 flasks, in a 5% CO2 humidified incubator to about 80% confluence. Media composition consisted of HAM/F12 with Glutamax I, 10% FCS, 100 units/ml Penicillin and 100 microgram/ml Hygromycin.
# Protocol: • Seeded each cell lines (1×10^5 cells/well) into poly-D-lysine coated 96-well plates prior to experimentation. • Incubated at 37° C. in 5% CO2 for 24 hours. • Washed each well with assay buffer (140 mM NaCl, 4.5 mM KCl, 10 mM D-Glucose, 2 mM CaCl2, 1 mM MgCl2, 10 mM HEPES, pH 7.4 adjusted with NaOH) twice. • Added 1st loading solution containing 10 microM CC2-DMPE and 0.06% Pluronic F-127 in assay buffer. • Incubated the plate at room temperature in dark for 1 hour. • Removed 1st loading solution and added 2nd loading solution containing 15 microM DiSBAC2(3), 0.555 mM VABSC-1 and 0.004% Pluronic F-127 in assay buffer. • Placed the plate under the dark at room temperature for 25 minutes. • Added compound solutions into the assay plate. • Set the assay plate in FDSS and placed an EFS device on the plate. • Measured EFS-induced fluorescent response by FDSS.
# The data were analyzed and reported as normalized ratios of intensities measured at […]. The process of calculating these ratios was performed as follows:
# [formula] This analysis was performed using a computerized specific program designed for FDSS generated data. Fluorescence ratio values were plotted using XLfit to determine an IC50 value for each compound.
# T2 sequence (Q15858 whole entry): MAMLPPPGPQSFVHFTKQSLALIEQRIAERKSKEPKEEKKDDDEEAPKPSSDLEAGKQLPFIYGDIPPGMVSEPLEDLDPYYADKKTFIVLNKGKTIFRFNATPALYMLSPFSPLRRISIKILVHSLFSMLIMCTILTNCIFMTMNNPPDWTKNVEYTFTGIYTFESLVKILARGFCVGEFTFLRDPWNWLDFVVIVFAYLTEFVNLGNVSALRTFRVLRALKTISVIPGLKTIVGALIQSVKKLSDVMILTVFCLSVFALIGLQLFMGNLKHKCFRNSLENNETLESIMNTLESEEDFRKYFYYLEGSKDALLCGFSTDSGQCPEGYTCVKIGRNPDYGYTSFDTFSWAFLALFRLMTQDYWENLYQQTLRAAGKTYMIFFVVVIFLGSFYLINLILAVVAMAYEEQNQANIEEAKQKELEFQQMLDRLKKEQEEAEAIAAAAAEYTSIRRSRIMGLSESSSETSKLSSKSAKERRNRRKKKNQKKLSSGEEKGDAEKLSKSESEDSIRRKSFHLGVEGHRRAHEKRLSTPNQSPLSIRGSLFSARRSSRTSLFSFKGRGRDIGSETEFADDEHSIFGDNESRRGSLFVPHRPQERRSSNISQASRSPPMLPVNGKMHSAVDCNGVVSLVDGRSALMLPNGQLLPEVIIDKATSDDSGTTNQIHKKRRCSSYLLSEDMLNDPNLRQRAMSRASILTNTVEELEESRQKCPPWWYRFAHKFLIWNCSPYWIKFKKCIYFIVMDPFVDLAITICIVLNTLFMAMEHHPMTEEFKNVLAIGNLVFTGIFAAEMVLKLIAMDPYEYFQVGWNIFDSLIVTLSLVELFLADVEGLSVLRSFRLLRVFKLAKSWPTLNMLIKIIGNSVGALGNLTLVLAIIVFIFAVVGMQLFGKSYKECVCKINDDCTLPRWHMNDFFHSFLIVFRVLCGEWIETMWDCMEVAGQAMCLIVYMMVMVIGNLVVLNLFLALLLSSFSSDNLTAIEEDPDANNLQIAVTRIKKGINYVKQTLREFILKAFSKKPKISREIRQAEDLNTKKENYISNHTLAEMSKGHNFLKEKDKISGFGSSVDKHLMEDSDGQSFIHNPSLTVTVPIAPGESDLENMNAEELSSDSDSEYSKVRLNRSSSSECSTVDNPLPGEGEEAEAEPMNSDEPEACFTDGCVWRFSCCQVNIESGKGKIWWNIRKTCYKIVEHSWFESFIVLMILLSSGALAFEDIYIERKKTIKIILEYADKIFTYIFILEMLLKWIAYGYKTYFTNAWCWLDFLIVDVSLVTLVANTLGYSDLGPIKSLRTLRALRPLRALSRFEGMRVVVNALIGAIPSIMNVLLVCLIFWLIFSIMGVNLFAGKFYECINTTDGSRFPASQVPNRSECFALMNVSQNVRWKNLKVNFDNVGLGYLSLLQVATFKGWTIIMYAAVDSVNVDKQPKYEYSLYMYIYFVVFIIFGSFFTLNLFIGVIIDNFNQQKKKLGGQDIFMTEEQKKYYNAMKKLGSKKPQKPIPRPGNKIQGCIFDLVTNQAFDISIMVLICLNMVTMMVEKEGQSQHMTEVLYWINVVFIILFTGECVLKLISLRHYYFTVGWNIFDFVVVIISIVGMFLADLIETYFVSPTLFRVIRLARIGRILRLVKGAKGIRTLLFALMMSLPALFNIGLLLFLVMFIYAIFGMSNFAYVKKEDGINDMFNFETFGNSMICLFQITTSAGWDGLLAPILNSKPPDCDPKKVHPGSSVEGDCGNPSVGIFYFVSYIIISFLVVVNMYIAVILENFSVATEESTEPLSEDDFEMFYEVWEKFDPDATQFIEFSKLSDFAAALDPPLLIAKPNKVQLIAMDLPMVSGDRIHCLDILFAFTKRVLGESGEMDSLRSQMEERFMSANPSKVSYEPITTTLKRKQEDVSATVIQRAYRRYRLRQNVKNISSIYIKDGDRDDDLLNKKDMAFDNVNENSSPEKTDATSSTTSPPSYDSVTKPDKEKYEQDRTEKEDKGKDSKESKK
# T1 sequence (Q9NY46 whole entry): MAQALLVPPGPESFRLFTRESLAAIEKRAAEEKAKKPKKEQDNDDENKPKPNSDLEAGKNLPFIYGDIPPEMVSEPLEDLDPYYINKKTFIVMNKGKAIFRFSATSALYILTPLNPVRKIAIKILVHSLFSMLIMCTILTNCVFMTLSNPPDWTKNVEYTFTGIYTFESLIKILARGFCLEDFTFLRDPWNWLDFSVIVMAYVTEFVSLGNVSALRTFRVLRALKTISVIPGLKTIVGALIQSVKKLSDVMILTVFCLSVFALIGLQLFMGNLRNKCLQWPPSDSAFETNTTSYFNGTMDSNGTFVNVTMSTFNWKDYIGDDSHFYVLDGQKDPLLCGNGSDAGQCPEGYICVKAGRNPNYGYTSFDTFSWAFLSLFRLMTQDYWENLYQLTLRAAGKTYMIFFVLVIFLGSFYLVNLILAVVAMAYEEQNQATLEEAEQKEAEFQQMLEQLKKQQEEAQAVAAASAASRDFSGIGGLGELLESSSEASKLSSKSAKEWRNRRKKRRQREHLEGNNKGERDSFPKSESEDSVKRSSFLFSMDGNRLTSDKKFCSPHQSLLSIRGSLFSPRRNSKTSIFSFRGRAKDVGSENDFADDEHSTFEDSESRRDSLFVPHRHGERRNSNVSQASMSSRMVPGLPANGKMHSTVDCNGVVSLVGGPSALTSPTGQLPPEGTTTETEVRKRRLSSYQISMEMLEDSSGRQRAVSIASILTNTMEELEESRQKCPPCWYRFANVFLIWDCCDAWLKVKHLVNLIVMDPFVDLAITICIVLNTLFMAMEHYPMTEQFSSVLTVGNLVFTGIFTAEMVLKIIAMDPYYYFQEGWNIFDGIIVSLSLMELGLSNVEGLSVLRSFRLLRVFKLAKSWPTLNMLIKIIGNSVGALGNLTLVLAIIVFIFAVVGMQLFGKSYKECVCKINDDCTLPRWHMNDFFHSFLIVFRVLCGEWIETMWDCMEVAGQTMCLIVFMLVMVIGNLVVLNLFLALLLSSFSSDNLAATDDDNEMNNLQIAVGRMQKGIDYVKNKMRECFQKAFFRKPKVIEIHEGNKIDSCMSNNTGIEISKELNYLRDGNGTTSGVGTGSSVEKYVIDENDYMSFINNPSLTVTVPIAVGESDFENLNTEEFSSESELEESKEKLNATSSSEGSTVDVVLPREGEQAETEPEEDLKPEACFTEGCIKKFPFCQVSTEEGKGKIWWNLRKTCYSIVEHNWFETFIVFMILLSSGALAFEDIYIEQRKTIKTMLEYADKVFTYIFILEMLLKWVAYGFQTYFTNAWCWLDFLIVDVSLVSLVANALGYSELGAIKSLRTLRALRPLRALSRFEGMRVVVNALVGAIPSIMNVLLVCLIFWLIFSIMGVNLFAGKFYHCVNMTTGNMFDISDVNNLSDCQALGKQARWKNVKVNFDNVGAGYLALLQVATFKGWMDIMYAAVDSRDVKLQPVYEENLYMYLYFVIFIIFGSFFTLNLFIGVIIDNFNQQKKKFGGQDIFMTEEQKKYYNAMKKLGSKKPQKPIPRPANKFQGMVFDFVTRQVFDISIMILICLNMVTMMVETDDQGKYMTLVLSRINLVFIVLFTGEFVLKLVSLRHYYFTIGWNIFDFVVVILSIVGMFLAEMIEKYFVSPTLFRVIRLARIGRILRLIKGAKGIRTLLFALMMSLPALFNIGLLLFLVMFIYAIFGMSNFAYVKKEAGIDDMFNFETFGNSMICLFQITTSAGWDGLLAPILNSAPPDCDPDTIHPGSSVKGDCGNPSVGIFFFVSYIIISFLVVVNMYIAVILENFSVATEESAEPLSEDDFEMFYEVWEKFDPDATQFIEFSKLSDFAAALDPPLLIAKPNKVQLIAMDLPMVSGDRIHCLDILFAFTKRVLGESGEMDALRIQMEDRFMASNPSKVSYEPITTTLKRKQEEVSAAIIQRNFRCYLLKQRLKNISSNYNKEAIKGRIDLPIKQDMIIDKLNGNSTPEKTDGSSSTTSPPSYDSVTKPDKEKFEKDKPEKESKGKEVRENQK
SMILES,IC50 (human NaV1.3) [µM],IC50 (human Nav1.7) [µM]
"CC(C)COc1cc(N2CCN(C(=O)Cn3nc4ccccc4n3)CC2)ncn1 [Example 105, 2-(2H-benzo[d][1,2,3]triazol-2-yl)-1-(4-(6-isobutoxypyrimidin-4-yl)piperazin-1-yl)ethanone]",< 3,< 3
"CC(C)COc1cc(N2CCN(C(=O)CSc3ccccc3)CC2)ncn1 [Example 120, 1-(4-(6-isobutoxypyrimidin-4-yl)piperazin-1-yl)-2-(phenylthio)ethanone]",< 3,< 3
"CC(C)COc1cc(N2CCN(C(=O)COc3ccc(F)c4cccnc34)CC2)ncn1 [Example 129, 2-((5-fluoroquinolin-8-yl)oxy)-1-(4-(6-isobutoxypyrimidin-4-yl)piperazin-1-yl)ethanone]",< 3,< 3
"CC(C)COc1cc(N2CCN(C(=O)CCOc3ccccc3)CC2)ncn1 [Example 131, 1-(4-(6-isobutoxypyrimidin-4-yl)piperazin-1-yl)-3-phenoxypropan-1-one]",< 3,< 3
"Cc1cccc(OCCC(=O)N2CCN(c3cc(OCC(C)C)ncn3)CC2)c1 [Example 132, 1-(4-(6-isobutoxypyrimidin-4-yl)piperazin-1-yl)-3-(m-tolyloxy)propan-1-one]",< 3,< 3
"CC(C)COc1cc(N2CCN(C(=O)c3cc(-c4ccccc4)n(C)n3)CC2)ncn1 [Example 133, (4-(6-isobutoxypyrimidin-4-yl)piperazin-1-yl)(1-methyl-5-phenyl-1H-pyrazol-3-yl)methanone]",< 3,< 3
"O=C(CCOc1ccc(F)cc1)N1CCN(c2cc(OCC(F)(F)F)ncn2)CC1 [Example 139, 3-(4-fluorophenoxy)-1-(4-(6-(2,2,2-trifluoroethoxy)pyrimidin-4-yl)piperazin-1-yl)propan-1-one]",< 3,< 3
"CC(C)COc1cc(N2CCN(C(=O)COc3cccc4c3ccn4C)CC2)ncn1 [Example 141, 1-(4-(6-isobutoxypyrimidin-4-yl)piperazin-1-yl)-2-((1-methyl-1H-indol-4-yl)oxy)ethanone]",< 3,< 3
"CC(C)COc1cc(N2CCN(C(=O)COc3cccc(OC(F)(F)F)c3)CC2)ncn1 [Example 145, 1-(4-(6-isobutoxypyrimidin-4-yl)piperazin-1-yl)-2-(3-(trifluoromethoxy)phenoxy)ethanone]",< 3,< 3
"O=C(Cn1nc2ccccc2n1)N1CCN(c2cc(OCC(F)(F)F)ncn2)CC1 [Example 146, 2-(2H-benzo[d][1,2,3]triazol-2-yl)-1-(4-(6-(2,2,2-trifluoroethoxy)pyrimidin-4-yl)piperazin-1-yl)ethanone]",< 3,< 3
"CC(C)Oc1cc(N2CCN(C(=O)c3csc(-c4ccccc4)n3)CC2)ncn1 [Example 165, (4-(6-isopropoxypyrimidin-4-yl)piperazin-1-yl)(2-phenylthiazol-4-yl)methanone]",< 3,< 3
"CC(C)COc1cc(N2CCN(C(=O)c3csc(Cc4ccccc4)n3)CC2)ncn1 [Example 167, (2-benzylthiazol-4-yl)(4-(6-isobutoxypyrimidin-4-yl)piperazin-1-yl)methanone]",< 3,< 3
"CC(C)COc1cc(N2CCN(C(=O)COCc3ccc(F)cc3)CC2)ncn1 [Example 168, 2-((4-fluorobenzyl)oxy)-1-(4-(6-isobutoxypyrimidin-4-yl)piperazin-1-yl)ethanone]",< 3,< 3
"Cc1c(C(=O)N2CCN(c3cc(OCC(C)C)ncn3)CC2)cnn1-c1ccc(F)cc1 [Example 169, (1-(4-fluorophenyl)-5-methyl-1H-pyrazol-4-yl)(4-(6-isobutoxypyrimidin-4-yl)piperazin-1-yl)methanone]",< 3,< 3
"Cc1nc(-c2cccc(C(=O)N3CCN(c4cc(OCC(C)C)ncn4)CC3)c2)cs1 [Example 187, (4-(6-isobutoxypyrimidin-4-yl)piperazin-1-yl)(3-(2-methylthiazol-4-yl)phenyl)methanone]",< 3,< 3
